Read-outs that look alike come from different tables or passages of the source.
Columns and labels:
[1] = system: soybean seedlings cv RAS 04; settings: in vivo
Experimental: (§1) Treated or untreated soybean seeds were allowed to dry under laminar flow for 24 h before sowing.
Plastic Box of 500 cc were filled with 250 ml extra fine (vermiculite up to 2 5 cm of the top 3 boxes per treatment. 50 ml of sterilized soybean seeds previously inoculated with Sclerotinia sclerotiorum (strain Sscl wt) grounded and mixed with XF vermiculite were spread over the 250 ml vermiculite. Same was done with the non-inoculated seeds serving as a reference for the germination test.
The inoculum was covered with 100 ml (1 cm) of XF vermiculite, and then 9 untreated or treated 9 soybean seeds were sown in each box. Seeds were covered with 150 ml (1.5 cm) of XF vermiculite. The substrate was moistened with 200 ml of tap water and then weekly once with tap water and once with a 0 5 g/l nutrients solution (Plant Prod, Ltd N P K 20 20 20 and micronutrients). The lid was punctured and then placed on each box for 5 days to maintain saturated humidity. Boxes were placed in a climatic chamber with a photoperiod of 16 h light/8 h darkness, 2424° C. day/1818° C. night and a relative humidity of 85.
Phytotoxicity assessments were carried out checking analyzing the following parameters: • a. Rate of emergence of soybean seedlings after 7 days post sowing dps. • b. General development (pictures) of the aerial part of the soybean plants after 3 weeks of incubation

[2] = system: soybean seedlings cv RAS 04; settings: in vivo; remark: listed apart in the source
Experimental: Disinfected seed surface of the soybean cultivar RAS 04 from RAGT were treated with the laboratory seed dressing equipment called Bol Hégé with the following products: • ADM 00050 F 1 A (500 SC) at 0.002-0.005-0.01-0.02 and 0.05 L/100 Kg seeds (1-2.5-5-10-25 g ai/100 Kg seeds), without coating agent. • Vibrance duo (25+25 g ai/L of Fludioxonil and Sedaxane SC) at 0.2 L/100 Kg seeds, corresponding to 5+5 g ai/100 Kg seeds of Fludioxonil and Sedaxane • Santhal (465 g ai/L of Metalaxyl-M (Mefenoxam) EC) at 0.064 L/100 Kg seeds (3 g ai/100 Kg seeds of Metalaxyl-M=Mefenoxam) without coating agent • Sterile distilled water Untreated Control, without coating agent
as §1
Plastic Box of 500 cc were filled with 250 ml extra fine (vermiculite up to 2 5 cm of the top 3 boxes per treatment. 50 ml of sterilized soybean seeds previously inoculated with Rhizoctonia solani (strain RsolAG 2 2) grounded and mixed with XF vermiculite were spread over the 250 ml vermiculite. Same was done with the non-inoculated seeds serving as a reference for the germination test.
The inoculum was covered with 100 ml (1 cm) of XF vermiculite, and then 9 untreated or treated 9 soybean seeds were sown in each box. Seeds were covered with 150 ml (1.5 cm) of XF vermiculite. […]

SMILES: COCC(=O)N(c1c(C)cccc1C)[C@H](C)C(=O)OC [Metalaxyl-M]
- Seedling emergence rate (% of the total) [1]: 77.8 +/− 6.4a % of the total
- Seedling emergence rate (% of the total) [2]: 77.8 +/− 6.4a % of the total

Reference: patent US20240172750A1, “5-Fluoro-4-Imino-3-Methyl-1-Tosyl-3,4-Dihydropyrimidin-2(1H)-One for Controlling Plant Diseases” (Adama Makhteshim Ltd., priority 2021, published 2024)
